Earlier results, collected in patent publication US20230390541A1, “Dermal Patch for Transdermal Modulation of Ghrelin Pathway” (Resarcion, LLC, priority 2019, published 2023).

Conditions: shortest structural analog among truncated ghrelin analogs

## Ser^3(octanoyl)-ghrelin (1-5)
  activity relative to native ghrelin: activity similar to the native hormone
